Laboratory results as given in patent publication US7524505B2, “Compositions and methods for dual therapies of hair graying and balding in follicular delivery systems” (Schweitzer Biotech Company Ltd., priority 2005, dated 2009).

System: hair follicle organ
Assay: Hair follicle organ cultured in vitro, length of re-grown hair
Format: cell-based, mice (F1 generation of C3H mated with BALB/C)
Settings: hair follicles cultured 12 days in the formula of amino acids and vitamins; length measured at Day 12; FIG. 7
Source text: At the age of 8 weeks, the F1 generation of C3H mated with BALB/C supplies the hair follicle material. By plucking the whiskers by depilating forceps, an anagen phase of the hair follicle can be induced. After three days of whisker plucking, the mice were killed and the hair follicle samples were harvested. Each selected hair follicle was then carefully isolated from the subcutaneous fat and the connective tissue surrounding the capsule was removed under a stereo-dissection microscope with fine forceps. We picked up the intact hair follicles with average size for the next step of culture, and which is in the early anagen stage, which is determined by the hair follicle conformation. Before culture, the hair fibre was first cut out at the surrounding line of the hair follicle to make the length measurement of hair growth much more easily in the future (FIG. 7). […]
Ten hair follicles were cultured in each treatment. […] The length of the hair growth beginning from the cutting site was measured at Day 12. […]
Hair follicle was observed by the Inverted microscope (Lieca DM, IL) and captured with the image by CCD connecting with a computer. The hair length was analyzed with the computer software: Northern Eclipse image system. The data of hair length were analyzed with the Duncan's new multiple range test by one way analysis of variance (ANOVA) using the SigmaStat program (2002).

## HSCF-II: recombinant fusion of human SCF, linking peptide and IGF-I; 253 amino acids, SEQ ID NO:6
  effect on hair re-growth (hair length): even better than each of SCF and IGF-I
